Literature values, collected in US20070032536A1, “Compounds, compositions and methods” (priority 2003, published 2007).

System: A549 cells
Conditions: data provided by National Cancer Institute, Developmental Therapeutic Program

Q: Which GI50 does the source give for `COc1cccc2c1C(=O)c1c(O)c3c(c(O)c1C2=O)C[C@@](O)(C(=O)CO)C[C@@H]3O[C@H]1C[C@H](N)[C@H](O)[C@H](C)O1` [doxorubicin] here?
A: 63 nM

Q: With `NC(=O)NO` [hydroxyurea] as the compound, how does the GI50 read?
A: 500000 nM

Q: Which GI50 does the source give for `CC(=O)O[C@H]1C(=O)[C@@]2(C)[C@H]([C@H](OC(=O)c3ccccc3)[C@]3(O)C[C@H](OC(=O)[C@H](O)[C@@H](NC(=O)c4ccccc4)c4ccccc4)C(C)=C1C3(C)C)[C@]1(OC(C)=O)CO[C@@H]1C[C@@H]2O` [paclitaxel] here?
A: 4 nM

Q: For `O=c1[nH]cc(F)c(=O)[nH]1` [5-fluorouracil], which GI50 is on record?
A: 1000 nM
